What was measured:
Format in all cases: biochemical
JAK1 = JAK1 (Homo sapiens, UniProt P23458); test: In vitro JAK1 kinase activity assay (HTRF kinEASE TK); parameters: purchased Thermo Fisher; details: 1.1 μM ATP, 60 minutes, room temperature; read-out: IC50 JAK1 (enzyme activity assay)
Description: (§1) Recombinant human JAK1 protein was purchased from Thermo Fisher. JAK2 and JAK3 proteins were purchased from Carna Biosciences. HTRF kinEASE TK kit was purchased from Cisbio Bioassays. BioTek microplate reader Synergy Neo 2 was used to read the plate.
(§2) The test compounds were of 4-fold serial dilution, and the final concentration ranged from 10 μM to 0.04 nM in duplicates for each concentration. The concentration of DMSO in the reaction system was 1%.
The reaction included 0.5 ng/μl JAK 1 protein kinase, 1 μM TK Substrate-biotin peptide substrate, 1.1 μM ATP, 1× enzymatic buffer, 5 mM MgCl2, 1 mM MnCl2, 1 mM DTT, and 2.5 nM SEB. The detection plate was White Proxiplate 384-Plus plate (PerkinElmer), and the mixture (10 μl) was reacted at room temperature for 60 minutes.
(§3) Reaction detection: 10 μl of detection reagent was added to the reaction plate containing final concentration of 0.125 μM of SA-XL665 and 5 μl 1×TK-Antibody. The mixture was incubated overnight at room temperature. The plate was read using Synergy Neo 2.
(§4) Data analysis: 665/620 Ratio was converted into inhibition rate (%) through the following formula: inhibition rate (%)=(Ratiomax−Ratiotest)/(Ratiomax−Ratiomin)×100%. Ratiomax is a positive control without detection compound, Ratiomin is a negative control without detection compound and kinase, Ratiotest is the detection value of each concentration of different compounds. 4 parameter curve fitting was performed to measure the IC50 (nM) values. The details are shown in, Table 1.

JAK3 protein = target: T1, JAK3 protein (Homo sapiens, UniProt P52333); test: In vitro JAK3 kinase activity assay (HTRF kinEASE TK); details: 0.75 μM ATP, 25 minutes, room temperature; read-out: IC50 JAK3 (enzyme activity assay)
T1 construct: purchased Carna Biosciences
T1 sequence (P52333 1-1124): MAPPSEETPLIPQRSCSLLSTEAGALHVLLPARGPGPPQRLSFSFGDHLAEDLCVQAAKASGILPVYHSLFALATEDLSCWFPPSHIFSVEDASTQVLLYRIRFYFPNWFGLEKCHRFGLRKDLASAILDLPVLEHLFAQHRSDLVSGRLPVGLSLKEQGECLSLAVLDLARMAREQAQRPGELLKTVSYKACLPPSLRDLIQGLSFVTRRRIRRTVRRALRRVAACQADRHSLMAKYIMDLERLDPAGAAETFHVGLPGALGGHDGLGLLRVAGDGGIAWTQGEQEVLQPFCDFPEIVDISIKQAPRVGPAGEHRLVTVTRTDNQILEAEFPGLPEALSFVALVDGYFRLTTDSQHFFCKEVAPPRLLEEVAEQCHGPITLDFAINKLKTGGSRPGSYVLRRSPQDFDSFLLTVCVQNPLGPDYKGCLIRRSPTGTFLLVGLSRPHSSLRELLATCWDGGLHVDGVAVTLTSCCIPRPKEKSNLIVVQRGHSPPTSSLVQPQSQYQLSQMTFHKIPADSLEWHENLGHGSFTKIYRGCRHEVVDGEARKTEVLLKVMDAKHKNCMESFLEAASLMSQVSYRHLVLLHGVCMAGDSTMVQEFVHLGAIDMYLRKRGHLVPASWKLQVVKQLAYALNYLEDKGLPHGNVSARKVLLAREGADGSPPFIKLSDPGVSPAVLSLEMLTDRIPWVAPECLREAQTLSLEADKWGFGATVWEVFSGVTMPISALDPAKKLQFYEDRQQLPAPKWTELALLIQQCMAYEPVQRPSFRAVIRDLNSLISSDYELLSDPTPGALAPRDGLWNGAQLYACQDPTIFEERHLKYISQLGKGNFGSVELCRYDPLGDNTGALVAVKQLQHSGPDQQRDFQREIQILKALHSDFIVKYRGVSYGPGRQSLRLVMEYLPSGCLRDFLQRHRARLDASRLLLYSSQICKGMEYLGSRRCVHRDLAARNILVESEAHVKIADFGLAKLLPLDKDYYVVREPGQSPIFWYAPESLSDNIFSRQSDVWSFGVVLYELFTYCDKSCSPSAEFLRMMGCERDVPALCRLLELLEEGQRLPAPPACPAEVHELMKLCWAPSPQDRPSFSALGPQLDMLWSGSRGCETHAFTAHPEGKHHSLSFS
Description: as §1, §2
(§5) The reaction included 0.004 ng/gi JAK 3 protein kinase, 1 μM TK Substrate-biotin peptide substrate, 0.75 μM ATP, 1× enzymatic buffer, 5 mM MgCl2, and 1 mM DTT. The detection plate was White Proxiplate 384-Plus plate (PerkinElmer), and the mixture (10 μl) was reacted at room temperature for 25 minutes.
as §3, §4

JAK2 = JAK2 (Homo sapiens, UniProt O60674); test: In vitro JAK2 kinase activity assay (HTRF kinEASE TK); parameters: purchased Carna Biosciences; details: 2.7 μM ATP, 25 minutes, room temperature; read-out: IC50 JAK2 (enzyme activity assay)
JAK2, sequence (O60674 whole entry): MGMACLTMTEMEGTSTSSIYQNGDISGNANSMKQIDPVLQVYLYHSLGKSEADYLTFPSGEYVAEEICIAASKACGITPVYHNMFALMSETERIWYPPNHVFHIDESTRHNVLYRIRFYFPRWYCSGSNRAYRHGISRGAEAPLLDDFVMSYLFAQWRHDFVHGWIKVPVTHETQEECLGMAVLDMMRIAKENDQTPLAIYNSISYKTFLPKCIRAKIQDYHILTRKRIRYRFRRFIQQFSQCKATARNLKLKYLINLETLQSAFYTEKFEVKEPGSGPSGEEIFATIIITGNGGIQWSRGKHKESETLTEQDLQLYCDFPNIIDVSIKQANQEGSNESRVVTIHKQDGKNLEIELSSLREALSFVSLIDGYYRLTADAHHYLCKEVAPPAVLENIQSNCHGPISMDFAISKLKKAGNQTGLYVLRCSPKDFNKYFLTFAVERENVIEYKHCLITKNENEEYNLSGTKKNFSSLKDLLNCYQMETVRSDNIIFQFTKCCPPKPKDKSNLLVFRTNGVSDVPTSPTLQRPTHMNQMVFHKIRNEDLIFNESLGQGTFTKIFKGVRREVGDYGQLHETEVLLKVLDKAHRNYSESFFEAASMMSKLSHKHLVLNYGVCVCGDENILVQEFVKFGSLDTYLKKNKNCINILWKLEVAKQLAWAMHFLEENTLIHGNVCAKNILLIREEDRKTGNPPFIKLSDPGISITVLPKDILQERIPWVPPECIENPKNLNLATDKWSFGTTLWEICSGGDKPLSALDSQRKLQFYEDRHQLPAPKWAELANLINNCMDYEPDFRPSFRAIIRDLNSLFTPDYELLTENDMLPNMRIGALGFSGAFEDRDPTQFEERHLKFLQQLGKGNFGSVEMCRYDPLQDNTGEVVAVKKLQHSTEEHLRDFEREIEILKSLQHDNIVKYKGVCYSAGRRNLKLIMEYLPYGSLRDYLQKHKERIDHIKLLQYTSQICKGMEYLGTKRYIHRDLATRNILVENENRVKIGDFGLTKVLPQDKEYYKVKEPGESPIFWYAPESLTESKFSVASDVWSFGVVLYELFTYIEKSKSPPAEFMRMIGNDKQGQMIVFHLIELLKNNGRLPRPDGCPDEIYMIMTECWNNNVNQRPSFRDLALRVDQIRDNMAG
Description: as §1, §2
as §5, with “included 0.001 ng/μl” for “included 0.004 ng/gi”, “JAK 2” for “JAK 3”, “substrate, 2.7” for “substrate, 0.75”
as §3, §4

JAK1, sequence (P23458 whole entry): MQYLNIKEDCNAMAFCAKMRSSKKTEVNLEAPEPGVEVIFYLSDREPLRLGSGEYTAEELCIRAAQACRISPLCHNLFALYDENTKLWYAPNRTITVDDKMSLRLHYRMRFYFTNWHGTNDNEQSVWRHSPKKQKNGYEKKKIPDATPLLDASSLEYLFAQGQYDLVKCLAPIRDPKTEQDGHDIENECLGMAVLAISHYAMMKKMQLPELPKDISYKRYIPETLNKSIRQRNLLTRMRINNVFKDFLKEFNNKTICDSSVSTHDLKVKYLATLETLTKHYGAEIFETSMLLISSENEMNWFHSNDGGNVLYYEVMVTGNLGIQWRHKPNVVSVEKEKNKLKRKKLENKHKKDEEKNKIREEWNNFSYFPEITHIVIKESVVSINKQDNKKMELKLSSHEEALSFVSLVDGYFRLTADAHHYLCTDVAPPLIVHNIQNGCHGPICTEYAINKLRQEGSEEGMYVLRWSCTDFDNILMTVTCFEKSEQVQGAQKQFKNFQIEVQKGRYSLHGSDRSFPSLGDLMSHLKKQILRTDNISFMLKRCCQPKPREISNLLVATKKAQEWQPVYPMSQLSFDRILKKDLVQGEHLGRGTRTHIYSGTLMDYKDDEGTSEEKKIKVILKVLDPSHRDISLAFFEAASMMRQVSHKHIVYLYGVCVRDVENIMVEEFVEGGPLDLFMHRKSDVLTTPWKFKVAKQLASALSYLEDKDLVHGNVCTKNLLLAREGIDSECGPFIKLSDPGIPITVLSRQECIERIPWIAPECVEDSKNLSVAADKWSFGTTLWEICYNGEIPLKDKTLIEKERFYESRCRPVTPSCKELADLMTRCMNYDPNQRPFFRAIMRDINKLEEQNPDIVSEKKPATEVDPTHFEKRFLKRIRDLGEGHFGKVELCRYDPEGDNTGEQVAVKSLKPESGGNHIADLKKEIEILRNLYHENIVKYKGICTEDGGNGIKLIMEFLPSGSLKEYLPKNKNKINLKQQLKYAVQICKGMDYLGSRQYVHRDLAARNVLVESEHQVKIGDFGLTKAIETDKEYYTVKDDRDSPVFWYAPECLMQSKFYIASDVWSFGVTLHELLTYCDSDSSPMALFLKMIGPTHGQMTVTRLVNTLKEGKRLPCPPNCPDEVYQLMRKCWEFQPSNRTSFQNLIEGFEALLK

Row | SMILES | IC50 (JAK1) [nM] | IC50 (JAK3 protein) [nM] | IC50 (JAK2) [nM]
1 | CCC(C(=O)Nc1nccc2c(-c3nc(Nc4cccc(S(C)(=O)=O)c4F)ncc3C)c[nH]c12)N1CCN(C)CC1 (stereo in doubt) [Example 20, (S)—N-(3-(2-((2-Fluoro-3-(methylsulfonyl)phenyl)amino)-5-methylpyrimidin-4-yl)-1H-pyrrolo[2,3-c]pyridin-7-yl)-2-(4-methylpiperazin-1-yl)butanamide] | 5 to 50 | 500 to 10000 | 100 to 10000
2 | COc1nn(C)cc1Nc1ncc(C)c(-c2c[nH]c3c(NC(=O)C(C)(C)N4CCN(C)CC4)nccc23)n1 [Example 11] | 5 to 50 | 500 to 10000 | 100 to 10000
3 | CCC(C(=O)Nc1nccc2c(-c3nc(Nc4cn(C)nc4OC)ncc3C)c[nH]c12)N1CCN(C2COC2)CC1 (stereo not drawn) [Example 18, N-(3-(2-((3-Methoxy-1-methyl-1H-pyrazol-4-yl)amino)-5-methylpyrimidin-4-yl)-1H-pyrrolo[2,3-c]pyridin-7-yl)-2-(4-(oxbutan-3-yl)piperazin-1-yl)butanamide] | < 5 | < 500 | 100 to 10000
4 | CC[C@@H](C(=O)Nc1nccc2c(-c3nc(Nc4cccc(S(C)(=O)=O)c4F)ncc3C)c[nH]c12)N1CC2CCC(C1)N2C [Example 26, (S)—N-(3-(2-((2-Fluoro-3-(methylsulfonyl)phenyl)amino)-5-methylpyrimidin-4-yl)-1H-pyrrolo[2,3-c]pyridin-7-yl)-2-(8-methyl-3,8-diazabicyclo[3.2.1]octane-3-yl)butanamide] | > 50 | 500 to 10000 | 100 to 10000
5 | CCC(C(=O)Nc1ncnc2c(-c3nc(Nc4cccc(S(C)(=O)=O)c4F)ncc3C)c[nH]c12)N1CCN(C)CC1 (stereo not drawn) [Example 29, N-(7-(2-((2-Fluoro-3-(methylsulfonyl)phenyl)amino)-5-methylpyrimidin-4-yl)-5H-pyrrolo[3,2-d]pyrimidin-4-yl)-2-(4-methylpiperazin-1-yl)butanamide] | > 50 | 500 to 10000 | 100 to 10000

Continued, values first:

Row | IC50 (JAK1) [nM] | IC50 (JAK3 protein) [nM] | IC50 (JAK2) [nM] | SMILES
6 | > 50 | 500 to 10000 | 100 to 10000 | COc1nn(C)cc1Nc1nccc(-c2c[nH]c3c(NC(=O)[C@@H](C)N4CCN(C)CC4)nccc23)n1 [Example 1, (R)—N-(3-(2-((3-Methoxy-1-methyl-1H-pyrazol-4-yl)amino)pyrimidin-4-yl)-1H-pyrrolo[2,3-c]pyridin-7-yl)-2-(4-methylpiperazin-1-yl)propionamide]
7 | < 5 | < 500 | 100 to 10000 | CCC(C(=O)Nc1nccc2c(-c3nc(Nc4cn(C)nc4OC)ncc3F)c[nH]c12)N1CCN(C)CC1 (stereo not drawn) [Example 17, N-(3-(5-Fluoro-2-((3-methoxy-1-methyl-1H-pyrazol-4-yl)amino)pyrimidin-4-yl)-1H-pyrrole[2,3-c]pyridin-7-yl)-2-(4-methylpiperazin-1-yl)butanamide]
